Reference: ChEMBL document CHEMBL4406923, “New Potent DOT1L Inhibitors for in Vivo Evaluation in Mouse” (ACS Med Chem Lett, 2019)
The source made the active and inactive calls. The rule behind the calls is not given here.

Legend:
[1] = organism: Homo sapiens; test: Inhibition of Ezh1 (Ezh1/EED/SUZ12/AEBP2/RbAP48) (unknown origin) at <5 uM using histone H3 peptide (21 to 44) as substrate in presence of co-factor SAM by LC-MS analysis
[2] = molecular target: T1, Histone-lysine N-methyltransferase SETD7 (Homo sapiens) (UniProt Q8WTS6); test: Inhibition of Set7/9 (unknown origin) at <5 uM using H3 (1 to 21) as substrate in presence of co-factor SAM by LC-MS analysis
T1 sequence (whole entry): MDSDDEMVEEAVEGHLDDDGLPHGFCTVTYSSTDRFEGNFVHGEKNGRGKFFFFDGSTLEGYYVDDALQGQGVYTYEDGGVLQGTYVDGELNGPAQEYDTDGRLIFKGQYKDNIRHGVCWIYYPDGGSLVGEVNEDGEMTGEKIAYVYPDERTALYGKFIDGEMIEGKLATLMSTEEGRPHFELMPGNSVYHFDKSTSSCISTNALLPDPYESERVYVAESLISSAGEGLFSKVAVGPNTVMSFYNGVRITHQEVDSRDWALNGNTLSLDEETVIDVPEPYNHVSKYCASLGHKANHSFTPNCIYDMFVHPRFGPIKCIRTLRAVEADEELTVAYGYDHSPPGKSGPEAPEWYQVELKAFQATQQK

[3] = molecular target: T2, Histone-arginine methyltransferase CARM1 (Homo sapiens) (UniProt Q86X55); test: Inhibition of CARM1 (unknown origin) at <5 uM using histone H3 peptide (1 to 21) as substrate in presence of co-factor SAM by LC-MS analysis
T2 sequence (whole entry): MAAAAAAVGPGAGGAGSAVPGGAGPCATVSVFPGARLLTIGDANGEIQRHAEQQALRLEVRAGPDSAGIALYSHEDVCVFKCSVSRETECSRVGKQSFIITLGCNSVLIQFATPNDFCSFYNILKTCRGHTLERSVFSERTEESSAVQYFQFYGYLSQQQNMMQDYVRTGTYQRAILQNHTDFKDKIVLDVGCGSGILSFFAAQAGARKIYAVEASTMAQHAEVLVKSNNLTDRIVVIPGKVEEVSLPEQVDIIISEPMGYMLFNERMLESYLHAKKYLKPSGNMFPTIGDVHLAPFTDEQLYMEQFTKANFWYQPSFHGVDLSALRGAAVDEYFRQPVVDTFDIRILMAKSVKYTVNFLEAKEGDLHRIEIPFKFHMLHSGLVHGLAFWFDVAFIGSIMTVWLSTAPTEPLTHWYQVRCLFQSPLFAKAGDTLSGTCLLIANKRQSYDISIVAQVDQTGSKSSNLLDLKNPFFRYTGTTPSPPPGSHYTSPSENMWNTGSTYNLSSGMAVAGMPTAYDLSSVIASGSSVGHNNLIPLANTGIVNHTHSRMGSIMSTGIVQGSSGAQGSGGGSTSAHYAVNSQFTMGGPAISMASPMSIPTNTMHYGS

[4] = molecular target: T3, N-lysine methyltransferase KMT5A (Homo sapiens) (UniProt Q9NQR1); test: Inhibition of SETD8 (unknown origin) at <5 uM using H4 (11 to 33 residues) as substrate in presence of co-factor SAM by LC-MS analysis
T3 sequence (whole entry): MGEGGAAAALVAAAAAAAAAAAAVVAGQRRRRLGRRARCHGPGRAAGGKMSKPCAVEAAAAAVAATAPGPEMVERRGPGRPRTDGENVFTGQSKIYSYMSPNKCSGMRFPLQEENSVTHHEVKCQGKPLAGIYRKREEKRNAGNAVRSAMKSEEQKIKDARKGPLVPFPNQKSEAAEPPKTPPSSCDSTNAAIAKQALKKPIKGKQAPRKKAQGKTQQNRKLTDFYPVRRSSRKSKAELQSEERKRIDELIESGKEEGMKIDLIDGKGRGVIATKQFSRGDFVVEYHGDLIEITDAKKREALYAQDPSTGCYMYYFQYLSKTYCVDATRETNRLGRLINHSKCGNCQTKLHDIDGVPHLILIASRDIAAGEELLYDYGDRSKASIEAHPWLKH

[5] = Toxicity in C57BL/6 mouse xenografted with human MV4-11 cells at 300 mg/kg, po; assay type: organism-based; settings: in vivo
[6] = molecular target: Histone-lysine N-methyltransferase SETD2 (Homo sapiens) (UniProt Q9BYW2); test: Inhibition of SETD2 (unknown origin) at <5 uM using histone H3 peptide (21 to 44) as substrate in presence of co-factor SAM by LC-MS analysis
Chain of Histone-lysine N-methyltransferase SETD2 (Homo sapiens) (Q9BYW2 whole entry): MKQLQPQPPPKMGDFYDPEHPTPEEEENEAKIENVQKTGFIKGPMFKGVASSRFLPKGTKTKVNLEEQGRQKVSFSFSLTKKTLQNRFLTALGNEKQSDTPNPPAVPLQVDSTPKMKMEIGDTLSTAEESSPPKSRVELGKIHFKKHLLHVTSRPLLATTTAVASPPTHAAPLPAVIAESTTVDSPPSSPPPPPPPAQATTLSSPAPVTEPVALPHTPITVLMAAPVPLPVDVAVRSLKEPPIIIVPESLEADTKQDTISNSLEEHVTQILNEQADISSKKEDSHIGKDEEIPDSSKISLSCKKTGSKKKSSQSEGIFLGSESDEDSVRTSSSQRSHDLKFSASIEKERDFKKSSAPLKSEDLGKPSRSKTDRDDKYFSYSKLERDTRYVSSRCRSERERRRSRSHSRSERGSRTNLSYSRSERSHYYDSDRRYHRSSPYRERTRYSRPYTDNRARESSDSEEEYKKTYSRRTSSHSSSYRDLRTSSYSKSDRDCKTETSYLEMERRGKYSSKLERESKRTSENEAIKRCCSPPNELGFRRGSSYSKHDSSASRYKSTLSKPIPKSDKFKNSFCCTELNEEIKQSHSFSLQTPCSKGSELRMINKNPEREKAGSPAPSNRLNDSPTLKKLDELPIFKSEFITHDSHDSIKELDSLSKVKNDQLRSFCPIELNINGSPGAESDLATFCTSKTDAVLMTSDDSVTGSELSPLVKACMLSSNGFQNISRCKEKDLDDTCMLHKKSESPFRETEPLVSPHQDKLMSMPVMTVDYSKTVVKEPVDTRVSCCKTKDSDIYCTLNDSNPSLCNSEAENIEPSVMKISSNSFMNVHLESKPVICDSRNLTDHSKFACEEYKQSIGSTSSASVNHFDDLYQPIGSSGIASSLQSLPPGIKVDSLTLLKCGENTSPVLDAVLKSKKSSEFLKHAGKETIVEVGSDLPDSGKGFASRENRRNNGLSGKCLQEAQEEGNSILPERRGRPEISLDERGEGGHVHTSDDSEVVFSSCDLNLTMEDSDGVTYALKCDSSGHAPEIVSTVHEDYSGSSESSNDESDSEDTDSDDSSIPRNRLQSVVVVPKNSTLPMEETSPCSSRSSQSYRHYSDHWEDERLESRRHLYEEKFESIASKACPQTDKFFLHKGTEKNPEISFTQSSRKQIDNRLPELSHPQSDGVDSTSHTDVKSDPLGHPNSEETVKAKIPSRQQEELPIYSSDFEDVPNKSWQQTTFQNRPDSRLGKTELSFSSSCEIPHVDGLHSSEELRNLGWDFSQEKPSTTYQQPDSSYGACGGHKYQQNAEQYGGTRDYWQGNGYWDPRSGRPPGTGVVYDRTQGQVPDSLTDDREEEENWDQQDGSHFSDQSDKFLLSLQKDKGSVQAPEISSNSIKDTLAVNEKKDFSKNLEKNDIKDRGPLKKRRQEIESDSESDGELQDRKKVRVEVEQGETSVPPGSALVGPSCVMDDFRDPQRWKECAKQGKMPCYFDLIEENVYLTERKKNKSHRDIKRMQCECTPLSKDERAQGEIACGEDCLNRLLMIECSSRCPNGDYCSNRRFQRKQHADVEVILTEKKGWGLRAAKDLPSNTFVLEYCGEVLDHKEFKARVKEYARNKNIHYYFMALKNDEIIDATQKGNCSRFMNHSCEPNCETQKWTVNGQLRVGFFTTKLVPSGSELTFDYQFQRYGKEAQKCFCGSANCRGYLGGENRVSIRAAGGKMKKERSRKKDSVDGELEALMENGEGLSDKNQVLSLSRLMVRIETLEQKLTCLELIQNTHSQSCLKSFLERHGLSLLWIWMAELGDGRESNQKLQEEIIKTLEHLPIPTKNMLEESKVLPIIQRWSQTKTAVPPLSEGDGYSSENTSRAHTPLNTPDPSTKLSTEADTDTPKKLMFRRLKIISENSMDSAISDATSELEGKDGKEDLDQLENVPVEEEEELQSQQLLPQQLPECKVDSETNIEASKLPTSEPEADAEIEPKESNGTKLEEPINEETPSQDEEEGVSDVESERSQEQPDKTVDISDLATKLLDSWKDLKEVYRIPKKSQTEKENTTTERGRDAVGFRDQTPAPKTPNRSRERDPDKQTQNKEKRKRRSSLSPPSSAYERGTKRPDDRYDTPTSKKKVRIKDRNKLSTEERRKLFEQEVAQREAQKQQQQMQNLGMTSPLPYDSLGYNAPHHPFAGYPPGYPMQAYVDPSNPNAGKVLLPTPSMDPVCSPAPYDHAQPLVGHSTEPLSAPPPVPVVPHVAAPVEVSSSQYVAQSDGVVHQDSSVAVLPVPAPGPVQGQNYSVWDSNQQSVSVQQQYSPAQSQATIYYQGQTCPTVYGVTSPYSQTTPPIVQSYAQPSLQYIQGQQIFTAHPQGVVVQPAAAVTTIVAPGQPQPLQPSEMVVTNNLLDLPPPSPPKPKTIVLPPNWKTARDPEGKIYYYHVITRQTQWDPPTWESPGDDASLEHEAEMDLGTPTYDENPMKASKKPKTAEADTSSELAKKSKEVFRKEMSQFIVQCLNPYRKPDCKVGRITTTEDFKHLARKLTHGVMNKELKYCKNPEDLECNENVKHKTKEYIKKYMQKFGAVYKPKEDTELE

- inhibition [1]: inactive
- inhibition [2]: inactive
- inhibition [3]: inactive
- inhibition [4]: inactive
- inhibition [6]: inactive
SMILES: COc1nc(Nc2cc(S(C)(=O)=O)ccc2N[C@@H](c2cccc3c2OC(F)(F)O3)c2ncccc2Cl)nc(N2CCNCC2)n1
- Activity [5]: Toxic
